We go through 56 compounds from PMC12064818, “A general assay platform to study protein pharmacology using ligand-dependent structural dynamics” (Nature Communications, 2025).

The experiment addresses T1, FLuc-C-HiBiT (Photinus pyralis, UniProt P08659).
T1 construct: firefly luciferase with C-terminal HiBiT tag, E. coli expressed
The experiment can be described thus: biochemical. Conditions: enzyme activity, 10 uM ATP; read-out: IC50 or SDR50 (mM) / FLuc E.

T1 sequence (P08659 whole entry, looked up): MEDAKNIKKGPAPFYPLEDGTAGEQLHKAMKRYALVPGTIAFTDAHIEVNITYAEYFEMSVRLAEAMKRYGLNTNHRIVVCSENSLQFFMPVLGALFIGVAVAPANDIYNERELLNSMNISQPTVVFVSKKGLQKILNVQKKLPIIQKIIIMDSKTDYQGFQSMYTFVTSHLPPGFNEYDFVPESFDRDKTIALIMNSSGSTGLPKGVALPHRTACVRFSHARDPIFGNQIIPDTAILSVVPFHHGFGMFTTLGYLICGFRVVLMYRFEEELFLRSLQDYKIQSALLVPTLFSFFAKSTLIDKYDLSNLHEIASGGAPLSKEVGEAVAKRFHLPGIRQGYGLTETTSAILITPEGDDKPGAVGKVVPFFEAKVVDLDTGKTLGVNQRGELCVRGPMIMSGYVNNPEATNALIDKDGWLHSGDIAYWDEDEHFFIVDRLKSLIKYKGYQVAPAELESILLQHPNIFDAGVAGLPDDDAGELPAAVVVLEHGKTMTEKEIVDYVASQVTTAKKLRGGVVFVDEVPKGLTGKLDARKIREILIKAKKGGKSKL

Take `COCCN1CCOc2nc(-c3cccc(N(C)C)c3)ncc2C1=O` [NCGC00413458-01]: the IC50 stood at 0.018 mM.
Regarding `O=C1c2cnc(-c3ccc(Cl)cc3)nc2OCCN1CC1CC1` [NCGC00413489-01], the IC50 was 0.00404 mM.
The value for `O=C1c2cnc(-c3cccc(C(F)(F)F)c3)nc2OCCN1CC1CC1` [NCGC00413514-01] was 0.00904 mM; that for `O=C1c2cnc(-c3ccccc3)nc2OCCN1CC1CC1` [NCGC00413518-01] was 0.0161 mM; that for `COc1cccc(-c2ncc3c(n2)OCCN(c2ccccc2)C3=O)c1` [NCGC00413522-01] was 0.0018 mM.
The value for `COc1ccc(-c2ncc3c(n2)OCCN(c2ccccc2)C3=O)cc1F` [NCGC00413523-01] was 0.00321 mM; that for `CN1CCOc2nc(-c3cccc(OC(F)(F)F)c3)ncc2C1=O` [NCGC00413529-01] was 0.018 mM; that for `Cc1ccc(-c2ncc3c(n2)OCCN(Cc2ccc(F)cc2F)C3=O)cc1` [NCGC00413538-01] was above 0.03 mM.
The result for `COc1ccc(CN2CCOc3nc(-c4cc5ccccc5o4)ncc3C2=O)cc1` [NCGC00413542-01] reads 0.00805 mM.
For the compound `COc1ccc(-c2ncc3c(n2)OCCN(CC2CC2)C3=O)cc1` [NCGC00413552-01], the IC50 was determined as 0.00805 mM.
For the compound `O=C1c2cnc(-c3cccc(CO)c3)nc2OCCN1c1ccccc1` [NCGC00413559-01], the IC50 stood at 0.0114 mM.
On to `CN1CCOc2nc(-c3ccc(Oc4ccccc4)cc3)ncc2C1=O` [NCGC00413560-01], for which the IC50 came out at 0.0161 mM.
The value for `Cc1ccc(-c2ncc3c(n2)OCCN(C)C3=O)c(C)c1` [NCGC00413561-01] was 0.0226 mM.
The value for `O=C1c2cnc(-c3ccc(CO)cc3)nc2OCCN1CC1CC1` [NCGC00413563-01] was 0.0114 mM; that for `COCCN1CCOc2nc(-c3cc(F)cc(OC)c3)ncc2C1=O` [NCGC00413569-01] was 0.0114 mM; that for `O=C1c2cnc(-c3ccc(F)cc3)nc2OCCN1CC1CC1` [NCGC00413585-01] was 0.0143 mM.
The value for `O=C1c2cnc(-c3cc4ccccc4o3)nc2OCCN1Cc1ccccc1` [NCGC00413600-01] was 0.00161 mM.
Turning to `O=C1c2cnc(-c3ccsc3)nc2OCCN1c1ccccc1` [NCGC00413608-01], the IC50 was 0.018 mM.
For the compound `CN(C)c1cccc(-c2ncc3c(n2)OCCN(c2ccccc2)C3=O)c1` [NCGC00413615-01], the IC50 is 0.0128 mM.
The result for `COc1ccc(-c2ncc3c(n2)OCCN(Cc2ccccc2)C3=O)cc1` [NCGC00413617-01] reads 0.018 mM.
For `COc1cccc(-c2ncc3c(n2)OCCN(Cc2ccccc2)C3=O)c1` [NCGC00413619-01], the IC50 came to 0.0128 mM.
The result for `O=C1c2cnc(-c3cccc(F)c3)nc2OCCN1c1ccccc1` [NCGC00413626-01] reads 0.0143 mM; that for `O=C1c2cnc(-c3ccccc3)nc2OCCN1Cc1ccccc1` [NCGC00413632-01], above 0.03 mM.
`COc1cccc(-c2ncc3c(n2)OCCN(Cc2ccc(F)cc2F)C3=O)c1` [NCGC00413648-01]: the IC50 is 0.0161 mM.
Consider `O=C1c2cnc(-c3ccc(F)cc3F)nc2OCCN1CC1CC1` [NCGC00413656-01], for which the IC50 came out at 0.018 mM.
The value for `CCOc1nccn2c(-c3ccc(CNC(=O)CNC(C)=O)cc3)cnc12` [NCGC00413921-01] was 0.018 mM; that for `OC1CN(Cc2ccc(-c3cnc4c(OCc5ccccc5)nccn34)cc2)C1` [NCGC00414051-01] was 0.0202 mM; that for `O=c1c2nc(N3CCC(c4ccccc4)CC3)ccc2ncn1C1CC1` [NCGC00414736-01] was 0.0036 mM.
Regarding `CN(c1ccccc1)c1ccc2ncn(C3CC3)c(=O)c2n1` [NCGC00414800-01], the IC50 amounted to 0.00568 mM.
With `COc1ccc(CN2CC(COc3ccccc3)C3(C2)CN(c2ccccc2)C3)cc1O` (centres unmarked) [NCGC00415956-01], the IC50 was above 0.03 mM.
The result for `CCOCC1(C)COc2ccc(C(=O)Nc3ccccc3)cc2N1` (centres unmarked) [NCGC00416079-01] reads 0.018 mM; that for `CCOCC1(C)COc2ccc(C(=O)Nc3ccc(Cl)cc3)cc2N1` (centres unmarked) [NCGC00416138-01], 0.018 mM; that for `COc1cc2c(cc1-c1ccc(CO)cc1)NC(=O)C21CCN(C)CC1` [NCGC00416803-01], 0.0202 mM.
The value for `COc1ccc(Nc2cc3c(nc2OC)nc(CCc2ccccc2)n3C)cn1` [NCGC00417814-01] was 0.0202 mM; that for `Cc1oc(C(O)c2ccccc2F)nc1C(=O)Nc1ccc(N2CCOCC2)cc1` (centres unmarked) [NCGC00417991-01] was 0.0161 mM; that for `CNC(=O)CCn1ncc2cc(OCc3ccccc3-c3cccc(NC(C)=O)c3)ccc21` [NCGC00418019-01] was 0.00313 mM.
The result for `C[S+](=O)([O-])CCn1ncc2cc(OCc3cccc(-c4cccnc4)c3)ccc21` [NCGC00418034-01] reads 0.0161 mM; that for `C[S+](=O)([O-])CCn1ncc2cc(OCc3cccc(-c4cccc(O)c4)c3)ccc21` [NCGC00418035-01], 0.0161 mM.
`C[S+](=O)([O-])CCn1ncc2cc(OCc3cccc(-c4ccc(F)cc4)c3)ccc21` [NCGC00418040-01]: the IC50 was 0.0161 mM.
For `Cc1cc(-c2cccc(COc3ccc4c(cnn4CC[S+](C)(=O)[O-])c3)c2)ccn1` [NCGC00418048-01], the IC50 worked out at 0.018 mM.
For the compound `Cn1cc(-c2cccc(COc3ccc4c(cnn4CC[S+](C)(=O)[O-])c3)c2)cn1` [NCGC00418049-01], the IC50 worked out at 0.018 mM.
The value for `CC(C)Oc1cccc(-c2cccc(COc3ccc4c(cnn4CC[S+](C)(=O)[O-])c3)c2)c1` [NCGC00418050-01] was 0.0111 mM; that for `C[S+](=O)([O-])CCn1ncc2cc(OCc3cccc(-c4ccccc4O)c3)ccc21` [NCGC00418051-01] was 0.0143 mM; that for `COc1cccc(F)c1-c1ccc(COc2ccc3c(cnn3CCC(=O)O)c2)cc1` [NCGC00418057-01] was 0.0202 mM.
The value for `COc1cc(F)ccc1-c1ccc(COc2ccc3c(cnn3CCC(=O)O)c2)cc1` [NCGC00418071-01] was 0.018 mM; that for `COc1ccc(F)cc1-c1ccc(COc2ccc3c(cnn3CCC(=O)O)c2)cc1` [NCGC00418072-01] was 0.018 mM; that for `C[S+](=O)([O-])CCn1ncc2cc(OCc3cccc(-c4ccccc4)c3)ccc21` [NCGC00418095-01] was 0.0064 mM.
The value for `Cc1ccc(F)cc1-c1ccc(COc2ccc3c(cnn3CCC(=O)O)c2)cc1` [NCGC00418121-01] was 0.018 mM.
`O=C(O)CCn1ncc2cc(OCc3ccc(-c4cccc(CO)c4)cc3)ccc21` [NCGC00418123-01]: the IC50 was 0.0161 mM.
On to `Cc1ccccc1-c1ccc(COc2ccc3c(cnn3CCC(=O)O)c2)cc1` [NCGC00418125-01], for which the IC50 came out at 0.0161 mM.
Take `CC(C)c1cnc(N2CCC(COc3ccc4c(cnn4CCC(=O)O)c3)CC2)nc1` [NCGC00418130-01]: the IC50 came out at 0.0202 mM.
The value for `CC(=O)Nc1cccc(-c2ccc(COc3ccc4c(cnn4CCC(=O)O)c3)cc2)c1` [NCGC00418146-01] was 0.00101 mM; that for `COc1cc(Cl)ccc1-c1ccc(COc2ccc3c(cnn3CCC(=O)O)c2)cc1` [NCGC00418159-01] was 0.0202 mM; that for `Cc1ccc(-c2cccc(COc3cnc4c(ccn4CC(=O)O)c3)c2)cc1` [NCGC00418171-01] was 0.00805 mM.
Regarding `Cc1ccccc1-c1cccc(COc2cnc3c(ccn3CC(=O)O)c2)c1` [NCGC00418175-01], the IC50 amounted to 0.018 mM.
Take `COc1cccc(-c2cccc(COc3cnc4c(ccn4CC(=O)O)c3)c2)c1F` [NCGC00418177-01]: the IC50 turned out to be 0.0128 mM.
